Assays:
[1] = In vitro percutaneous penetration of MTX in glass diffusion cells
Method: Methotrexate was obtained from Lederle Laboratories, Pearl River, NY. Methotrexate (3',5',7-^3H)sodium (250 mCi/mmol) was obtained from Amersham and prior to use was purified by chromatography on thin-layer cellulose plates in 0.006 M potassium phosphate buffer, pH 6.0. Vehicle N was obtained from the Neutrogena Corporation. Los Angeles, CA.
The percutaneous penetration of MTX was measured in glass diffusion cells as previously described. McCullough et al (1976) J Invest Derm 66:103-107. Excised human skin obtained from abdominoplasty was used for these studies. First, 0.5 ml containing 10 µCi methotrexate-^3H and cold methotrexate to give a final concentration of 2% in various vehicles was applied to the epidermal surface (0.2 ml/cm^2). A total of […] methotrexate was applied to each diffusion cell. The dermal reservoir contained phosphate buffered saline. Three diffusion cells were run for each vehicle. Diffusion cells were incubated with constant stirring at 28°C. Methotrexate penetration was followed at various time points up to 48 hr by liquid scintillation counting. The test solution was removed after the 48 hr incubation period, and the epidermal surface was rinsed three times with vehicle in which the drug being tested was dissolved. […] The epidermis was separated by heating the skin for 1 min on a hot plate at 60°C. MTX was extracted from the epidermis and dermis utilizing the techniques described by Werkheiser et al (1962) J Pharmacol Exp Ther 137:162-166, which specifically disassociates MTX from cellular bound proteins. The stratum corneum was removed by repeated stripping with cellophane tape until the skin glistened.
In vitro percutaneous penetration studies were carried out according to the methods of Example I with formulations of a topical gel containing about 3% Azone and various concentrations of MTX.
Employing the methods described in Example I, various vehicles containing 2% by weight of tritiated MTX were tested in vitro on human skin.
Additional studies with the mini-pig model, as described in Example IV, were conducted to test various carriers with different concentrations of MTX and Azone. Formulations were applied daily for 7 days. Three sites per treatment area were injected with ^3H-UdR. Autoradiographs were scored at 4 wk. Techniques as described in Examples I and II were employed to measure percutaneous penetration and DNA synthesis.
Various vehicle formulations were evaluated in vitro at various MTX concentrations for penetration of MTX into the epidermis. Penetration was evaluated as described in Example I. Unless otherwise noted, all vehicles were a gel formulation that contained 3% Azone.

epidermal DNA synthesis [2] = assay: In vivo epidermal DNA synthesis (tritiated deoxyuridine incorporation) after topical MTX in hairless mice; set-up: species or system HRS/J albino hairless mice; settings: for suppression of epidermal DNA synthesis in treated back skin: compared to Vehicle N treated control
From the text: Deoxyuridine (6-^3H) (25 Ci/mmol) was obtained from New England Nuclear. Other materials were obtained as described in Example I.
(§1) HRS/J albino hairless mice, age 2-3 months, were used for these experiments. For induction of the […] fatty acid deficiency, 3-week-old animals were fed an essential fatty acid deficient diet (Teklad) for 60 days.
(§2) Six to ten mice were used for each treatment group. Tritiated deoxyuridine was utilized as a precursor for assaying the effects of methotrexate on the de novo pathway for epidermal DNA synthesis. The incorporation of tritiated deoxyuridine into DNA depends on the normal functioning of dihydrofolate reductase which is blocked by methotrexate. At selected time points after single or repeated topical MTX applications, mice were injected IP with tritiated deoxyuridine (50-100 uCi) for measurement of epidermal DNA synthesis in treated backskin to determine the local effect of MTX. DNA synthesis was simultaneously measured in untreated abdominal skin of Vehicle N and MTX-treated animals to determine systemic effects of MTX at a distant site. One hour after administration of isotope, animals were sacrificed by cervical dislocation, and treated backskin and untreated abdominal skin was obtained. Epidermis was removed after incubating the skin specimens for 1 hr at 37°C in 2 M sodium bromide. DNA was extracted and assayed using the technique described by Halprin et al (1979) J Invest Derm 73:359-363. Results of epidermal DNA synthesis were calculated as counts/minute/ug of DNA. The effects of MTX treatment on DNA synthesis of the back and abdomen were expressed as percentage of the DNA synthesis of Vehicle N treated back skin and untreated abdomin in control animals.

hairless mouse skin = assay: Skin changes after topical MTX in normal and essential fatty acid deficient hairless mice; assay type: in vivo, HRS/J albino hairless mice; settings: three daily applications of 2% MTX in Vehicle N, untreated abdominal skin not similarly affected
Method: as §1
as §2, with “Topical MTX preparations at various concentrations or vehicle control in the amount of 0.05 ml were applied to the backskin area of 1.5 cm by 3 cm daily for 1 or 3 days. Six” for “Six”, “One hour after administration of isotope, animals were sacrificed by cervical dislocation, and treated backskin and untreated abdominal skin was obtained. Epidermis was removed after incubating the skin specimens for 1 hr at 37°C in 2 M sodium bromide. DNA was extracted and assayed using the technique described by Halprin et al (1979) J Invest Derm 73:359-363.” left out, “animals. […]” for “animals.”

epidermal DNA synthesis [3] = assay: In vivo epidermal labeling index (DNA synthesis) in the mini-pig model; set-up: species or system Mini-pigs; settings: for Epidermal Labeling Index: applied daily for 7 days, mini-pig dorsal skin
Method: The formulations of Example III were tested for effect on in vivo DNA synthesis in the mini-pig model. Mini-pig skin closely resembles human skin and the effect of a drug on epidermal cell proliferation is a recognized test for the effectiveness of therapeutic protocols for hyperproliferative skin disease.
Mini-pigs were obtained from Charles River Laboratories, Inc. (Wilmington, MA). Drug preparations were applied to small areas of dorsal skin (ca 1 inch square) according to the selected application schedules. Six hours following the last drug application, tritiated thymidine was injected into the drug treatment sites for autoradiographic assessment of epidermal proliferation as measured by epidermal labeling index. Weinstein & and Van Scott, (1965) J. Invest. Derm. 44:413
A vehicle containing various concentrations of MTX was applied daily for 7 days. Tritiated deoxyuridine was injected into the treatment sites on day 7, as well as in untreated control area. DNA synthesis was measured as described in Example II.
Formulations were applied daily for 7 days. […] Autoradiographs were scored at 4 wk.

[4] = tested on: psoriatic epidermal DNA synthesis; assay: Intradermal administration of MTX; assay type: in vivo; settings: administered intradermally, compared with systemic MTX
From the text: Thus, it has been discovered that MTX or its analogs can be administered topically in an effective manner to skin afflicted with a hyperproliferative epithelial disease avoiding, therefore, the serious side effects associated with systemic MTX administration.

psoriasis = settings: 0.1% and 0.5% MTX in vehicle with 2.5% C-10-methylsulfoxide, six patients, daily for nine days; cited from earlier work
[5] = prior-art topical MTX preparations, in vitro and in vivo; cited from earlier work
[6] = 0.1% Methotrexate in topical gel containing about 3% Azone
[7] = 0.5% Methotrexate in topical gel containing about 3% Azone
[8] = 1.0% Methotrexate in topical gel containing about 3% Azone

## CN(Cc1cnc2nc(N)nc(N)c2n1)c1ccc(C(=O)N[C@@H](CCC(=O)O)C(=O)O)cc1 [MTX, Methotrexate]
[1]; [6]
  Cumulative Penetration 48 hr: 0.6 ± 0.2 µg
  Epidermal Content: 3.9 ± 0.3 µg
[1]; [7]
  Cumulative Penetration 48 hr: 7.5 ± 1.4 µg
  Epidermal Content: 24.1 ± 8.1 µg
[1]; [8]
  Cumulative Penetration 48 hr: 18.7 ± 6.1 µg
  Epidermal Content: 36.0 ± 11.7 µg
Epidermal DNA synthesis [2]; four daily applications of MTX in Vehicle N
  effect on DNA synthesis in back skin and untreated abdominal skin: total suppression of DNA synthesis
Epidermal DNA synthesis [2]; single application of MTX in Vehicle N
  effect on DNA synthesis: ineffective
Epidermal DNA synthesis [2]; three daily applications of 1% MTX in Vehicle N, 6 hr after the last treatment
  effect on DNA synthesis in treated skin: produced inhibition of DNA synthesis
Epidermal DNA synthesis [2]; three daily applications of 2% MTX in Vehicle N, at 54 hr (6 hr after the last treatment)
  systemic effect on DNA synthesis in untreated abdominal skin: no significant (p < 0.001) systemic methotrexate effect
Epidermal DNA synthesis [2]; three daily applications of 2% MTX in Vehicle N, at 54 hr
  suppression of epidermal DNA synthesis in treated back skin: 50%
Epidermal DNA synthesis [2]; three daily applications of 2% MTX in Vehicle N, at 72 hr, 24 hr after the last treatment
  local and systemic effect on DNA synthesis: both local and systemic effects were obtained
Epidermal DNA synthesis [2]; three daily applications of 2% MTX in Vehicle N, at 72 hr
  suppression of epidermal DNA synthesis in treated back skin: 75%
Epidermal DNA synthesis [2]; three daily applications of MTX in Vehicle N at concentrations lower than 1%
  effect on DNA synthesis: no local or systemic effect
Epidermal DNA synthesis [2]; topical MTX (0.5%) in N-decylmethylsulfoxide
  effect on epidermal DNA synthesis: no effect on epidermal DNA synthesis
Hairless mouse skin
  effect on epidermis of treated skin: marked epidermal atrophy
Epidermal DNA synthesis [3]; 0.5% Methotrexate in gel with about 3% Azone
  Epidermal Labeling Index: 0.0 ± 0.0%
Epidermal DNA synthesis [3]; 0.5% and 1.0% MTX in Azone gel, daily for 7 days, compared to the vehicle control
  labeling intensity (rate of DNA synthesis): slight decrease in labeling intensity
Epidermal DNA synthesis [3]; 1.0% Methotrexate in gel with about 3% Azone
  Epidermal Labeling Index: 0.8 ± 1.4%
[4]
  biochemical effects and biological actions: same biochemical effects (inhibition of psoriatic epidermal DNA synthesis) and biological actions (mitotic inhibition and damaged cell production) as systemic MTX
psoriasis
  clinical improvement: no significant improvement in any of the patients
[5]
  percutaneous penetration of human skin: negligible percutaneous penetration

— patent EP0247900A1, “Topical methotrexate preparation for the treatment of hyperproliferative epithelial disease” (THE REGENTS OF THE UNIVERSITY OF CALIFORNIA, priority 1986, dated 1987)
